Test results taken from the supplement of paper PMC10307832.

What was measured:
Assay in all cases: relative viability (nuclei count vs DMSO), 5 days (fraction); higher = more cells survive
Motesanib + Foretinib = compound: CC1(C)CNc2cc(NC(=O)c3cccnc3NCc3ccncc3)ccc21 [Motesanib] + COc1cc2c(Oc3ccc(NC(=O)C4(C(=O)Nc5ccc(F)cc5)CC4)cc3F)ccnc2cc1OCCCN1CCOCC1 [Foretinib] (partner 0.25 µM)
Method in brief: (§1)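 Relative viability is defined as nuclei in treated wells over nuclei in vehicle wells. Duplicate plates were run and medians reported. Lung cancer cell lines in 1536-well plates were dosed by pin tool one day after seeding, with one drug or with a fixed anchor-drug dose plus five library-drug doses (not always all listed) in √10 steps, and nuclei were counted after 5 days.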

[1] = compound: C[C@@]1(C(=O)Nc2ccc(F)nc2)CCCN1c1nc(Nc2cc(C3CC3)n[nH]2)c2cccn2n1 + CS(=O)(=O)N1CCN(Cc2cc3nc(-c4cccc5[nH]ncc45)nc(N4CCOCC4)c3s2)CC1 [Pictilisib] (partner 1 µM)
Method in brief: as §1

Motesanib + Crizotinib = compound: CC1(C)CNc2cc(NC(=O)c3cccnc3NCc3ccncc3)ccc21 [Motesanib] + C[C@@H](Oc1cc(-c2cnn(C3CCNCC3)c2)cnc1N)c1c(Cl)ccc(F)c1Cl [Crizotinib] (partner 1 µM)
Method in brief: as §1

Motesanib + Linsitinib = compound: CC1(C)CNc2cc(NC(=O)c3cccnc3NCc3ccncc3)ccc21 [Motesanib] + C[C@]1(O)C[C@@H](c2nc(-c3ccc4ccc(-c5ccccc5)nc4c3)c3c(N)nccn32)C1 [Linsitinib] (partner 1 µM)
Method in brief: as §1

Row | Cell Line | relative viability (Motesanib + Foretinib; first compound 0.01 µM) | relative viability (Motesanib + Foretinib; first compound 0.03162 µM) | relative viability (Motesanib + Foretinib; first compound 0.3162 µM) | relative viability (Motesanib + Foretinib; first compound 1 µM) | relative viability ([1]; first compound 0.04 µM) | relative viability ([1]; first compound 0.1265 µM) | relative viability ([1]; first compound 0.4 µM) | relative viability ([1]; first compound 1.265 µM) | relative viability (Motesanib + Crizotinib; first compound 0.01 µM) | relative viability (Motesanib + Crizotinib; first compound 0.03162 µM) | relative viability (Motesanib + Crizotinib; first compound 0.1 µM) | relative viability (Motesanib + Crizotinib; first compound 0.3162 µM) | relative viability (Motesanib + Crizotinib; first compound 1 µM) | relative viability (Motesanib + Linsitinib; first compound 0.01 µM) | relative viability (Motesanib + Linsitinib; first compound 0.03162 µM) | relative viability (Motesanib + Linsitinib; first compound 0.1 µM) | relative viability (Motesanib + Linsitinib; first compound 0.3162 µM) | relative viability (Motesanib + Linsitinib; first compound 1 µM) | relative viability (Motesanib + Foretinib; first compound 0.1 µM)
1 | EPLC-272H | 0.659 | 0.744 | 0.663 | 0.799 | 0.251 | 0.18 | 0.168 | 0.174 | 0.935 | 0.969 | 1.05 | 1.04 | 0.944 | 1.23 | 1.26 | 1.26 | 1.24 | 1.38 | –
2 | NCI-H1563 | 0.904 | 0.899 | 0.909 | 0.889 | 0.625 | 0.614 | 0.596 | 0.598 | 0.867 | 0.855 | 0.906 | 0.804 | 0.914 | 1.26 | 1.19 | 1.21 | 1.14 | 1.21 | 0.915
3 | NCI-H2126 | 1.13 | 1.12 | 1.31 | 1.11 | 0.456 | 0.392 | 0.394 | 0.436 | 1.07 | 1 | 0.999 | 1.03 | 1.09 | 0.736 | 0.73 | 0.719 | 0.74 | 0.701 | 1.17
4 | LXF-289 | 1 | 0.952 | 1.03 | 0.987 | 0.739 | 0.657 | 0.567 | 0.628 | 0.822 | 0.823 | 0.82 | 0.842 | 0.867 | 0.958 | 0.974 | 1.02 | 1 | 1.02 | 0.924
5 | NCI-H2009 | 1.23 | 1.21 | 1.22 | 1.21 | 0.824 | 0.765 | 0.653 | 0.717 | 0.965 | 1.09 | 0.928 | 1.01 | 0.943 | 1.14 | 1.27 | 1.17 | 1.22 | 1.18 | 1.23
6 | NCI-H2405 | – | 1.01 | 1.07 | 1.08 | 0.391 | 0.357 | 0.37 | 0.296 | 0.8 | 0.847 | 0.875 | 0.864 | 0.905 | – | 1 | 0.866 | 0.967 | 0.993 | 1.06
7 | NCI-H1755 | 0.904 | 0.914 | 1.01 | 0.842 | 0.481 | 0.241 | 0.307 | 0.381 | 0.862 | 0.867 | 0.893 | 0.91 | 0.882 | 1.02 | 0.999 | 1.03 | 1.02 | 1.02 | 0.925
8 | HCC-78 | 0.665 | 0.637 | 0.514 | 0.678 | 0.204 | 0.148 | 0.172 | 0.189 | 0.378 | 0.352 | 0.37 | 0.326 | 0.384 | 0.498 | 0.481 | 0.541 | 0.705 | 0.584 | 0.507
9 | LOU-NH91 | 0.97 | 0.929 | 0.948 | 1.02 | 0.492 | 0.478 | 0.452 | 0.448 | 0.743 | 0.746 | 0.743 | 0.769 | 0.729 | 1.05 | 0.996 | 0.942 | 0.91 | 0.996 | 0.91
10 | IA-LM | 1.12 | 1.1 | 1.07 | 1.19 | 0.175 | 0.261 | 0.125 | 0.179 | 0.829 | 0.745 | 1.21 | 0.729 | 0.803 | 0.514 | 0.627 | 0.594 | 0.482 | 0.46 | 1.23
11 | NCI-H3122 | 0.951 | 0.938 | 1.01 | 0.986 | 0.479 | 0.374 | 0.479 | 0.393 | 0.253 | 0.27 | 0.285 | 0.295 | 0.267 | 0.986 | 0.961 | 0.991 | 1.01 | 0.965 | 0.821
12 | HCC-827 | 0.963 | 1.09 | 1.08 | 1.03 | 0.889 | 1.07 | 1.1 | 1 | 0.99 | 0.985 | 0.998 | 0.955 | 0.93 | 0.983 | 0.916 | 1 | 1.05 | 0.951 | 1.02
13 | SK-LU-1 | 0.941 | 0.831 | 0.841 | 0.906 | 0.546 | 0.453 | 0.428 | 0.502 | 0.961 | 0.935 | 0.826 | 0.897 | 0.988 | 1.14 | 1.01 | 1.2 | 1.1 | 1.32 | 0.846
14 | NCI-H1975 | 0.978 | 0.9 | 0.898 | 0.899 | 0.226 | 0.211 | 0.188 | 0.197 | 1.05 | 0.848 | 0.93 | 0.889 | 0.983 | 0.962 | 0.9 | 0.948 | 0.909 | 0.941 | 0.908
15 | NCI-H1703 | 0.349 | 0.318 | 0.395 | 0.355 | 0.25 | 0.224 | 0.227 | 0.213 | 0.826 | 0.545 | 0.303 | 0.155 | 0.172 | 0.814 | 0.656 | 0.497 | 0.306 | 0.162 | 0.325
16 | NCI-H1651 | 0.824 | 0.877 | 0.82 | 0.982 | 0.484 | 0.447 | 0.39 | 0.538 | 0.836 | 0.835 | 0.786 | 0.912 | 0.838 | 0.917 | 0.912 | 0.966 | 0.944 | 1.08 | 0.845
17 | NCI-H441 | 0.889 | 0.922 | 1 | 1.03 | 0.455 | 0.337 | 0.36 | 0.375 | 0.596 | 0.785 | 1.02 | 0.846 | 0.803 | 0.519 | 0.545 | 0.626 | 0.603 | 0.875 | 1.13
